Experimental data reported in patent publication US7608716B2, “Pyrazolonaphthyridine derivative” (Aska Pharmaceutical Co., Ltd., priority 2002, dated 2009).

Assays:
[1] = system: T1, PDE IV isozymes separated from U937 culture cells; test: PDE IV inhibition ([3H]-cAMP hydrolysis); format: biochemical; conditions: cAMP 1 μM substrate, 30° C., 20 minutes
T1 construct: PDE IV isozymes as used herein were separated from U937 culture cells by using an anion exchange chromatography
Description: PDE IV isozymes as used herein were separated from U937 culture cells by using an anion exchange chromatography. Type IV PDE isozyme was admixed with ethylene glycol (EG) to adjust the final EG concentration to 30%, then stored at −20° C. and diluted when used. The enzymatic activity for PDE IV was measured using cAMP as a substrate.
Each test compound was dissolved in DMSO to adjust the final concentration to 1% (2.5 μl/tube).
Incubation Buffer Solution (pH7.5):
• Tris-HCl (50 mM), magnesium chloride (6 mM), dithiothreitol (2.5 mM), 5-nucleotidase (4 μg/ml), bovine serum albumin (0.23 mg/ml), and cAMP (1 μM).
A mixture of the aforementioned test compound solution and the buffer solution was incubated at 30° C. for 20 minutes. The reaction was quenched by admixing with 1 ml of anion exchange resin slurry (AG1-X8, 200-400 meshes, chloride form; Bio-Rad) to absorb unreacted substrates. After the reaction stopped, the mixture was centrifuged at 800×g for 10 minutes, and the resulting supernatant was collected with vials in 250 μl aliquots. To each vial was added 5 ml of ACS-II (scintillator, Amersham). The radioactivity was measured with a liquid scintillator counter for [^3H]-adenosine and set as the PDE IV activity.

[2] = system: actively sensitized guinea pigs; test: Inhibition of antigen-induced immediate asthmatic response (airway resistance, Konzett-Rossler); format: in vivo, Hartley guinea pigs; conditions: Cavia porcellus, oral, 60 minutes prior to antigen-challenge, reduction of increase in airway resistance, read-out: Inhibition of Asthmatic response ED50: mg/kg orally
Description: Male Hartley outbred guinea pigs were sensitized by administering intraperitoneally physiological saline (0.5 ml) containing ovalbumin (1 mg, antigen) and 5×10^9 inactivated Bordetella pertussis dead cells (adjuvant). Eleven to thirteen days after the first sensitization, 0.05 ml of an ovalbumin solution (1 mg/ml) (ovalbumin is dissolved in physiological saline) was administered to the lateroabdominal region of each guinea pig intracutaneously. An establishment of sensitization was checked relying on cutaneous reaction. Only guinea pigs wherein significant reddening responses occurred 5 to 10 minutes later were employed in the next measurement test for airway resistance.
The guinea pigs (3 animals per group) actively sensitized in the above step (1) were employed to measure for their airway pressure according to Konzett-Rossler method (Arch. Exp. Path. Pharmakol., 195, 71 (1940)).
Thirteen days after the final sensitization, guinea pigs fasted overnight, and were on the next day anesthetized with a pentobarbital solution (30 mg/1.2 ml/kg, dissolved in physiological saline, intraperitoneal administration). After the guinea pigs were fixed in a supine position, their trachea was incised followed by insertion with one port of a 4-port cannula. Among the remaining 3 ports, 2 ports were connected to an artificial respirator (Model 683, Harvard). The animals were ventilated with 10 ml/kg of air per ventilation at a rate of 60 beats/min via the artificial respirator from the cannula. One port remainder was connected to a respiratory amplifier (AR-601G, Nihon Kohden, Japan) via an airflow resistance tube (TV-241T, Nihon Kohden, Japan) and a differential pressure transducer (TP-602T, Nihon Kohden, Japan) connected with a control box (RY-111S, Nihon Kohden, Japan). From a catheter inserted into a left carotid artery, blood pressures were monitored with a blood pressure measurement unit (AP641G, NEC Corp., Japan) via a blood pressure transducer (TP-300T, Nihon Kohden, Japan), and heart rates were recorded on a thermal recorder (WT-685G, Nihon Kohden, Japan), relying on blood pressure pulse waves after being led to a cardiograph unit (AT601G, Nihon Kohden, Japan).
After airway pressure became stable, an ovalbumin solution (1 mg/ml, dissolved in physiological saline) was administered at a dose of 1 ml/kg via a tube with which the right jugular vein of guinea pigs was cannulated.
Each test compound was suspended in 0.5% CMC-Na solution and administered orally with an oral sound at a dose of 0.03 to 20 mg/2 ml/kg 60 minutes prior to the antigen-challenge. Control groups received only 0.5% CMC-Na solution in an equivalent amount. The pentobarbital-anesthetization and tracheal incision were conducted 30 minutes prior to the antigen-challenge.
Each percent reduction of increase in airway resistance (each test compound-administered group versus control group) was calculated according to the equation given below. ED50 was obtained by Probit method.

TNF-α production = test: Inhibition of TNF-α production in galactosamine- and LPS-stimulation; format: in vivo; conditions: Mus musculus; C3H/HeN mice, oral, 1 hour before galactosamine/LPS i.v.; serum TNF-α by ELISA 1 hour later; read-out: Inhibition of TNF-α production ED50: mg/kg orally
Description: A suspension of each test compound in 0.5% CMC-Na solution was administered orally to C3H/HeN mice at a dose of 0.10 to 10 mg/kg. One hour later, the animals received intravenously galactosamine at a dose of 800 mg/kg and LPS at a dose 5 μg/kg to raise the induction of TNF-α production. One hour later after the galactosamine- and LPS-administration, amounts of TNF-α in serum samples were measured by ELISA, and ED50 was obtained. Roflumilast and SB207499 were used for the reference compounds in this assay.

[3] = system: lung eosinophil infiltration; test: Inhibition of lung eosinophil infiltration (OVA-sensitized, BALF); format: in vivo, Hartley guinea-pigs; conditions: Cavia porcellus, guinea-pigs, oral, 1 hour before OVA inhalation, BALF eosinophils at 24 hours, read-out: Inhibition of Lung Eosinophil Infiltration ED50: mg/kg orally
Description: Hartley guinea-pigs were sensitized by inhaling twice 1% ovalbumin (OVA) in a physiological saline for 10 minutes with a nebulizer (Atom Medical Corporation, Japan) at an interval of 1 week. The animals were orally given a suspension of test compounds at a dose of 0.03 to 3 mg/2 mL/kg one week after the final sensitization. One hour later, the animals were exposed to antigens by inhalation of 2% OVA in a physiological saline for 5 minutes with a nebulizer. Thirty minutes before the antigen challenge, the animals were intraperitoneally pretreated with pyrilamine at a dose of 10 mg/kg to avoid fatality due to anaphylactic shock. Bronchoalveolar lavage fluid (BALF) samples were collected 24 hours after the exposure by inhalation of antigens, and eosinophils were counted.

rats = test: Toxicology study (2-weeks administration to rats); format: in vivo; conditions: oral, 1, 5, or 25 mg/5 ml/kg
Description: Each compound of the present invention (Example Nos. 9 and 33) was administered orally to rats (6 animals per group) as a test compound. […] The test compound was suspended in 0.5% CMC-Na solution and given orally to the animal at a dose of 1, 5, or 25 mg/5 ml/kg in a forced manner.

| SMILES | IC50 [1] | ED50 [2] | ED50 (TNF-α production) | ED50 [3] | Abnormality in other parameters (rats) | Body weight gain (rats) | Mortality (rats) |
| --- | --- | --- | --- | --- | --- | --- | --- |
| O=c1c2c(Cc3ccc(F)cc3)n[nH]c2c2cccnc2n1-c1ccccc1 [Example No. 33, 3-(4-fluorobenzyl)-5-phenyl-1H-pyrazolo[4,3-c][1,8]naphthyridin-4 (5H)-one] | 0.068 µM | 0.33 mg/kg | 0.1 mg/kg | 0.03 mg/kg | no clear abnormality was observed | No significant reduction of body weight gains was observed | None of the animals were died |
| O=c1c2c(Cc3ccccc3)n[nH]c2c2cccnc2n1-c1ccccc1 [Example No. 9, 3-benzyl-5-phenyl-1H-pyrazolo[4,3-c][1,8]naphthyridin-4 (5H)-one] | 0.084 µM | 0.16 mg/kg | 0.22 mg/kg | < 0.03 mg/kg | no clear abnormality was observed | No significant reduction of body weight gains was observed | None of the animals were died |
